Experimental findings from patent US20240262807A1, “COMPOUND USED AS BCR-ABL INHIBITOR” (CHIA TAI TIANQING PHARMACEUTICAL GROUP CO., LTD., priority 2021, published 2024) are described below.

Where only a bound is given, the exact number is not on record here.

Holding throughout (format): cell-based
In test [1] the target is T1, Ba/F3-BCR-ABL1-T315I-C3 cells (Homo sapiens, UniProt P00519, T315I, cells depend on it).
T1 construct: fused on or other part: P11274 (Breakpoint cluster region protein)
Kind of test: Inhibitory effect of compounds on proliferation of BCR-ABL T315I-transfected Ba/F3 cells (CCK-8). The following applies: 72 h with compound, CCK-8, 5% serum, read-out: IC50 (nM) Ba/F3-BCR-ABL1 T315I.

The subject of another test is K562 cells. Briefly: Inhibitory effect of compounds on proliferation of K562 cells (CCK-8). The note with it: Homo sapiens, 72 h with compound, CCK-8, 5% serum.
The target in the next test is T2, hERG potassium channel (Homo sapiens, UniProt Q12809).
T2 construct: expressed in transfected cells; host or cells: HEK-293 cells, stably transformed
Kind of test: Evaluation of cardiac safety: hERG potassium channel whole-cell patch clamp in HEK-293 cells. The following applies: HEK-293 cells over-expressing hERG potassium channel, tail current, room temperature. On the procedure: The cell strains were derived from HEK-293 cells over-expressing hERG potassium channel. The cells were cultured in an incubator at 37° C. 5% CO2. […]
The stably-transformed cells were seeded onto a slide at a cell density of less than 50% and cultured overnight. […] Membrane currents were recorded by using a HEKA EPC-10 patch clamp amplifier and PATCHMASTER acquisition system (HEKA Instruments Inc., D-67466 Lambrecht. Pfalz. Germany) and analyzed and counted by using Origin 8.5 (OriginLab Corporation. Northampton. MA) software and Microsoft Excel (results in Table 4). […]
Channel currents were recorded in the experiments using a whole-cell recording mode. An extracellular fluid (approximately 2 mL per min) was firstly perfused, the process was continuously recorded, and the current was waited for stabilization (current decay (Run-Down) was less than 5% in 5 min); at this point, the tail current peak value was the control current value. Then, the extracellular fluid containing the test drug was perfused, and the process was continuously recorded until the inhibitory effect of the drug on the hERG current reached a stable state; at this point, the tail current peak value was the current value after dosing. […]
In general terms: Block of hERG is tested as a sign of cardiac risk.

In general, IC50 refers to the point on the concentration scale where inhibition reaches its midpoint.

T2 sequence (Q12809 whole entry): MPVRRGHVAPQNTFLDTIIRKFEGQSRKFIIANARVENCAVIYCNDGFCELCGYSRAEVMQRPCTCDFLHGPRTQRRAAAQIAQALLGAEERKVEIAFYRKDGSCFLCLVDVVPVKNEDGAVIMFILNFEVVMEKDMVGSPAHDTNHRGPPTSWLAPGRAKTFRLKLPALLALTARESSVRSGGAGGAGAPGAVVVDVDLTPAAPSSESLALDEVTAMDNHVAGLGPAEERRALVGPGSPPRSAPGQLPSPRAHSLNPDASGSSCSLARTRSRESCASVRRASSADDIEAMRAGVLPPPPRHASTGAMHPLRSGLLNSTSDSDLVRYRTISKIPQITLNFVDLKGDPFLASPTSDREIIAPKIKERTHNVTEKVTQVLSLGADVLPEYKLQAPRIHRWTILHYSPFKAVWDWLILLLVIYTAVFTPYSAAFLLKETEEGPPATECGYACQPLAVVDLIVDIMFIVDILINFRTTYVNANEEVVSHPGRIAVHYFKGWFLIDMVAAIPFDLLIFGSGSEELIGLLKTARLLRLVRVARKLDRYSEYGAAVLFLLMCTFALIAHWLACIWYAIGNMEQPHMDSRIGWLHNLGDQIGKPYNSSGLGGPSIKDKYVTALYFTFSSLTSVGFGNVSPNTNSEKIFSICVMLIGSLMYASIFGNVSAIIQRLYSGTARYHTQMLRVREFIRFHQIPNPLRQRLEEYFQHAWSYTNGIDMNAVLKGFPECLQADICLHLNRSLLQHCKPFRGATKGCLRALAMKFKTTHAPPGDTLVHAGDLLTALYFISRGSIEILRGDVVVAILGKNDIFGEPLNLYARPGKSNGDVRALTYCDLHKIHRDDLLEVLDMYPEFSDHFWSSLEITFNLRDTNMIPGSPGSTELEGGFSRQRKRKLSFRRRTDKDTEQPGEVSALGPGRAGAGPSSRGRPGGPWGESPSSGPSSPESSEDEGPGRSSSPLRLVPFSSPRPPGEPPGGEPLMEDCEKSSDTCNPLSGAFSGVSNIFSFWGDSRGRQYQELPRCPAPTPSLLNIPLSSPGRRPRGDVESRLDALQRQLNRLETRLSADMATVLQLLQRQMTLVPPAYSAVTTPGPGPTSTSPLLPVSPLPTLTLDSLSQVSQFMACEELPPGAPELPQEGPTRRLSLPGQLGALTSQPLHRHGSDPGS

Take `O=C(Nc1ccc(OC(F)(F)Cl)cc1)c1cnc(N2CC[C@@H](O)C2)c(-c2cc3c([nH]2)C(=O)NC3)c1` [Compound 106]: the GI50 in test [1] is 0.54 nM. The IC50 with K562 cells is 1.1 nM; at hERG potassium channel, > 30000 nM.
